Measurements taken from patent publication US20160050895A1, “TRANSGENIC NON-HUMAN ORGANISMS WITH NON-FUNCTIONAL TSPO GENES” (AUSTRALIAN NUCLEAR SCIENCE AND TECHNOLOGY ORGANIZATION, priority 2013, published 2016).

What was measured:
[1] = test system: TSPO; assay: Receptor film autoradiography of tissue sections with [3H]PK11195 and [125I]CLINDE; assay type: binding, mouse; conditions: spleen, kidney, testis sections from TSPO-/- mice; 3 nM [125I]CLINDE, 1 nM [3H]PK11195
Protocol: Snap-frozen tissues were sectioned at 20 μm in a cryostat, thaw mounted on poly-L-lysine-coated slides and stored at −80° C. until day of experiment. On the day of the experiment, slides were thawed at room temperature and air dried with a cool stream of air. Total and non-specific binding were determined by incubation with 1 nM of 3H-PK11195 with or without the presence of 3 μM of PK11195 in 130 mM TRIS-HCl buffer (pH 7.4) at room temperature for 20 minutes. Following incubation, the slides were briefly dipped twice in 130 mM TRIS-HCl buffer, washed twice for 5 minutes in fresh 130 mM TRIS-HCl at room temperature. […] Images were analysed with Quantity One imaging analysis program (Bio-Rad, Hercules, Calif. USA); to assess the level of 3H-PK11195 binding, regions of interest were drawn over the tissue and an average optical density/mm^2 was calculated. […]
The organs including brain, retina, heart, kidney and testes used for film autoradiography were dissected from wild-type (TSPO^+/+), heterozygous (TSPO^+/−), and homozygous (TSPO^−/−) mice and snap-frozen in liquid nitrogen. […] Tritium standards (Amersham Biosciences, Uppsala, Sweden) co-exposed with the organ sections on each Hyperfilm-^3H (Kodak Film) at 4° C. for 60 days, were used to quantify the autoradiographically measured binding. […]

[2] = target: TSPO (Mus musculus, UniProt P50637); assay: as above; assay type: binding; parameters: Snap-frozen tissues were sectioned at 20 μm in a cryostat; from tissue; host or cells: mouse organ sections (brain, retina/eye, heart, adrenal, kidney, testis, spleen), C57BL/6 background
Protocol: Snap-frozen tissues were sectioned at 20 μm in a cryostat, thaw mounted on poly-L-lysine-coated slides and stored at −80° C. until day of experiment. On the day of the experiment, slides were thawed at room temperature and air dried with a cool stream of air. Total and non-specific binding were determined by incubation with 1 nM of 3H-PK11195 with or without the presence of 3 μM of PK11195 in 130 mM TRIS-HCl buffer (pH 7.4) at room temperature for 20 minutes. Following incubation, the slides were briefly dipped twice in 130 mM TRIS-HCl buffer, washed twice for 5 minutes in fresh 130 mM TRIS-HCl at room temperature. The slides were finally briefly rinsed 3 times in chilled distilled H2O, dried under a cool stream of air and allowed to air dried overnight. Sections were exposed to Kodak BioMax MR film along with tritium microscales with known activity concentrations in X-ray film cassettes. Films were developed after 33 days and digitized using a GS800 Calibrated Densitometer (Bio-Rad, Hercules, Calif., USA). Images were analysed with Quantity One imaging analysis program (Bio-Rad, Hercules, Calif. USA); to assess the level of 3H-PK11195 binding, regions of interest were drawn over the tissue and an average optical density/mm^2 was calculated. Data obtained from an individual film, subject to interfilm variations, were normalized against other films through the optical density oftritium microscales.
The organs including brain, retina, heart, kidney and testes used for film autoradiography were dissected from wild-type (TSPO^+/+), heterozygous (TSPO^+/−), and homozygous (TSPO^−/−) mice and snap-frozen in liquid nitrogen. Cryostat organ sections at 18 μm were placed onto superfrost slides (Menzel-Glaser, Braunschweig, Germany) and stored in the dark at −20° C. for no longer than 1 week before the experiment. […] Tritium standards (Amersham Biosciences, Uppsala, Sweden) co-exposed with the organ sections on each Hyperfilm-^3H (Kodak Film) at 4° C. for 60 days, were used to quantify the autoradiographically measured binding. The hyperfilm was developed using Kodak GBX developer and fixer (Sigma Aldrich, St. Louis, Mo., U.S.A.). The hyperfilm was air-dried overnight before being scanned using the ArtixScan 1800f flatbed scanner (Microtek, Hsinchu, Taiwan), with greyscale using a magnification of 400% and an optical resolution of 2400 pixels per inch. No pre-scanning manipulation or filter was applied.
Tissue sections from TSPO^+/+, TSPO^+/− and TSPO^−/− mice were incubated at room temperature for 20 min in 170 mM Tris-HCl pH 7.4 containing 1 nM [^3H]PK11195 (specific activity 84 Ci/mmol; Perkin Elmer, Waltham, Mass., USA), washed twice for 5 min in 170 mM Tris-HCl, rinsed with 3 dips in ice-cold MilliQ H2O, and dried. […] Displacement binding was carried out in the presence of PK11195 (10 μM), CLINDE (10 μM) and PBR-11 (10 μM).

CC[C@@H](C)N(C)C(=O)c1cc2ccccc2c(-c2ccccc2Cl)n1 [[^3H]PK11195]
binding in TSPO-/- tissue [1]: at background level and not displaceable | selectivity for TSPO ([2]; in vitro, validated against TSPO-/- null background): high selectivity | Specific binding in tissue sections ([2]; spleen, kidney, testis sections from TSPO+/+ and TSPO+/- mice, 3 nM [125I]CLINDE, 1 nM [3H]PK11195): clearly visible
